# US12343331B2, “Methods and agents that stimulate mitochondrial turnover for treating disease” (Capacity Bio, Inc., priority 2021, dated 2025)
# Non-standard residues stand in square brackets, D forms with d. Residues, ends and D or L forms follow the SMILES beside them. Nle = CCCC[C@H](N)C(=O)O
# Test system: INS1 cells
# Assay: Mitochondrial content / cellular mitochondrial mass by imaging
# Assay type: cell-based
# Settings: INS1 cell line; 8 hours, 24 hours, and 72 hours; three concentrations; FIG. 9; normalized to DMSO
# Procedure: Cells were cultured on coverslips inside a Petri dish filled with the appropriate culture medium or grown directly into a four-chamber glass bottom dish and cells were subsequently imaged on the LSM880. At least 30 cells per condition per experiment were collected, at least three separate experiments were performed for imaging clonal cells. Image analysis was performed in the CellProfiler™ software (cellprofiler.org) to measure mitophagic events. Individual mitochondrial fluorescence intensity and area were measured in CellProfiler™ and imported into Microsoft Excel®. Mitochondria smaller than 2 pixels in area were not included in final analyses. Images were subjected to top hat filtering followed by global threshold Otsu method to segment mitochondria. To assess amount of mitochondrial content, green fluorescence intensity of objects identified as mitochondrial structures were quantitated. Data has been normalized to the control treatment, dimethyl sulfoxide (DMSO).
row,Structure (SMILES),cellular mitochondrial mass (mitochondrial content)
1,CCCCOC(=O)NS(=O)(=O)c1ccc(OC(F)(F)F)cc1-c1ccc(Cn2ccnc2)cn1 [Compound 7],stable
2,"CCCC[C@H](NC(=O)[C@H](CCCNC(=N)N)NC(=O)[C@@H](N)CC(=O)O)C(=O)N[C@@H](Cc1ccc(O)cc1)C(=O)N[C@H](C(=O)N[C@@H](Cc1c[nH]cn1)C(=O)N1CCC[C@H]1C(=O)O)[C@@H](C)CC [Nle^3-A(1-7), Asp-Arg-Nle-Tyr-Ile-His-Pro] (H-DR[Nle]YIHP-OH)",stable
3,"CC[C@H](C)[C@H](NC(=O)[C@H](Cc1ccc(O)cc1)NC(=O)[C@@H](NC(=O)[C@H](CCCNC(=N)N)NC(=O)[C@@H](N)CC(=O)O)C(C)C)C(=O)N[C@@H](Cc1c[nH]cn1)C(=O)N1CCC[C@H]1C(=O)O [angiotensin(1-7), H-Asp-Arg-Val-Tyr-Ile-His-Pro-OH]",stable
